Data reported in ChEMBL document CHEMBL2150993, “Substituted thiazoles VII. Synthesis and antitumor activity of certain 2-(substituted amino)-4-phenyl-1,3-thiazole analogs” (2012).
Active and inactive are the calls of the source. The rule behind the calls is not given here.

Columns and labels:
Assay type in all cases: functional
HCT-15 = test: Growth inhibition of human HCT15 cells after 48 hrs by cell counting analysis; settings: at 10 µM
[1] = Antiproliferative activity against human ovarian cancer cells after 48 hrs by cell counting analysis; settings: Cancer cell lines
SK-MEL-2 = test: Growth inhibition of human SK-MEL-2 cells after 48 hrs by cell counting analysis; settings: at 10 µM
CAKI-1 = test: Growth inhibition of human Caki1 cells after 48 hrs by cell counting analysis; settings: at 10 µM
SNB-19 = test: Growth inhibition of human SNB19 cells after 48 hrs by cell counting analysis; settings: at 10 µM
[2] = Growth inhibition of human NCI-322M cells after 48 hrs by cell counting analysis; settings: at 10 µM
Malme-3M = test: Growth inhibition of human MALME-3M cells after 48 hrs by cell counting analysis; settings: at 10 µM
MDA-MB-468 = test: Growth inhibition of human MDA-MB-468 cells after 48 hrs by cell counting analysis
SW-620 = test: Growth inhibition of human SW620 cells after 48 hrs by cell counting analysis; settings: at 10 µM
[3] = Antiproliferative activity against human CNS cancer cells after 48 hrs by cell counting analysis; settings: Cancer cell lines
[4] = Antiproliferative activity against human non-small cell lung cancer cells after 48 hrs by cell counting analysis; settings: Cancer cell lines
MCF7 = test: Growth inhibition of human MCF7 cells after 48 hrs by cell counting analysis; settings: at 10 µM
OVCAR-3 = test: Growth inhibition of human OVCAR3 cells after 48 hrs by cell counting analysis; settings: at 10 µM
HOP-62 = test: Growth inhibition of human HOP62 cells after 48 hrs by cell counting analysis; settings: at 10 µM
PC-3 = test: Growth inhibition of human PC3 cells after 48 hrs by cell counting analysis; settings: at 10 µM
SK-MEL-28 = test: Growth inhibition of human SK-MEL-28 cells after 48 hrs by cell counting analysis; settings: at 10 µM
RPMI-8226 = test: Growth inhibition of human RPMI8226 cells after 48 hrs by cell counting analysis; settings: at 10 µM
OVCAR-4 = test: Growth inhibition of human OVCAR4 cells after 48 hrs by cell counting analysis; settings: at 10 µM
SK-MEL-5 = test: Growth inhibition of human SK-MEL-5 cells after 48 hrs by cell counting analysis; settings: at 10 µM
SN12C = test: Growth inhibition of human SN12C cells after 48 hrs by cell counting analysis; settings: at 10 µM
[5] = Antiproliferative activity against human melanoma cells after 48 hrs by cell counting analysis
UO-31 = test: Growth inhibition of human UO31 cells after 48 hrs by cell counting analysis; settings: at 10 µM
OVCAR-5 = test: Growth inhibition of human OVCAR5 cells after 48 hrs by cell counting analysis; settings: at 10 µM
K562 = test: Growth inhibition of human K562 cells after 48 hrs by cell counting analysis; settings: at 10 µM
[6] = Antiproliferative activity against human prostate cancer cells after 48 hrs by cell counting analysis; settings: Cancer cell lines
HT-29 = test: Growth inhibition of human HT-29 cells after 48 hrs by cell counting analysis; settings: at 10 µM
LOX IMVI = test: Growth inhibition of human LOXIMVI cells after 48 hrs by cell counting analysis; settings: at 10 µM
OVCAR-8 = test: Growth inhibition of human OVCAR8 cells after 48 hrs by cell counting analysis; settings: at 10 µM
HOP-92 = test: Growth inhibition of human HOP92 cells after 48 hrs by cell counting analysis; settings: at 10 µM
TK-10 = test: Growth inhibition of human TK10 cells after 48 hrs by cell counting analysis
MOLT-4 = test: Growth inhibition of human MOLT4 cells after 48 hrs by cell counting analysis; settings: at 10 µM
SF-268 = test: Growth inhibition of human SF268 cells after 48 hrs by cell counting analysis; settings: at 10 µM
[7] = Growth inhibition of human NCI-ADR-RES cells after 48 hrs by cell counting analysis; settings: at 10 µM
SR = test: Growth inhibition of human SR cells after 48 hrs by cell counting analysis; settings: at 10 µM
M14 = test: Growth inhibition of human M14 cells after 48 hrs by cell counting analysis; settings: at 10 µM
NCI-H522 = test: Growth inhibition of human NCI-H522 cells after 48 hrs by cell counting analysis; settings: at 10 µM
SF-539 = test: Growth inhibition of human SF539 cells after 48 hrs by cell counting analysis; settings: at 10 µM
[8] = Antiproliferative activity against human leukemia cells after 48 hrs by cell counting analysis
NCI-H226 = test: Growth inhibition of human NCI-H226 cells after 48 hrs by cell counting analysis; settings: at 10 µM
IGROV-1 = test: Growth inhibition of human IGROV1 cells after 48 hrs by cell counting analysis; settings: at 10 µM
MDA-MB-435 = test: Growth inhibition of human MDA-MB-435 cells after 48 hrs by cell counting analysis; settings: at 10 µM
MDA-MB-231 = test: Growth inhibition of human MDA-MB-231 cells after 48 hrs by cell counting analysis; settings: at 10 µM
UACC-257 = test: Growth inhibition of human UACC257 cells after 48 hrs by cell counting analysis; settings: at 10 µM
CCRF-CEM = test: Growth inhibition of human CCRF-CEM cells after 48 hrs by cell counting analysis; settings: at 10 µM
KM12 = test: Growth inhibition of human KM12 cells after 48 hrs by cell counting analysis; settings: at 10 µM
HCT-116 = test: Growth inhibition of human HCT116 cells after 48 hrs by cell counting analysis; settings: at 10 µM
UACC-62 = test: Growth inhibition of human UACC62 cells after 48 hrs by cell counting analysis; settings: at 10 µM
A549 = test: Growth inhibition of human A549 cells after 48 hrs by cell counting analysis; settings: at 10 µM
HL-60 = test: Growth inhibition of human HL60 cells after 48 hrs by cell counting analysis; settings: at 10 µM
[9] = Antiproliferative activity against human colon cancer cells after 48 hrs by cell counting analysis; settings: Cancer cell lines
[10] = Antiproliferative activity against human renal cancer cells after 48 hrs by cell counting analysis; settings: Cancer cell lines
EKVX = test: Growth inhibition of human EKVX cells after 48 hrs by cell counting analysis; settings: at 10 µM
[11] = Antiproliferative activity against human breast cancer cells after 48 hrs by cell counting analysis; settings: Cancer cell lines
ACHN = test: Growth inhibition of human ACHN cells after 48 hrs by cell counting analysis; settings: at 10 µM
SF-295 = test: Growth inhibition of human SF295 cells after 48 hrs by cell counting analysis; settings: at 10 µM
SNB-75 = test: Growth inhibition of human SNB75 cells after 48 hrs by cell counting analysis; settings: at 10 µM
T47D = test: Growth inhibition of human T47D cells after 48 hrs by cell counting analysis; settings: at 10 µM
NCI-H23 = test: Growth inhibition of human NCI-H23 cells after 48 hrs by cell counting analysis
U-251 = test: Growth inhibition of human U251 cells after 48 hrs by cell counting analysis; settings: at 10 µM
HCC 2998 = test: Growth inhibition of human HCC2998 cells after 48 hrs by cell counting analysis; settings: at 10 µM
RXF 393 = test: Growth inhibition of human RXF393 cells after 48 hrs by cell counting analysis; settings: at 10 µM
BT-549 = test: Growth inhibition of human BT549 cells after 48 hrs by cell counting analysis; settings: at 10 µM
SK-OV-3 = test: Growth inhibition of human SKOV3 cells after 48 hrs by cell counting analysis; settings: at 10 µM
[12] = read-out: LC50 (the source's name)

## Cc1ccc(-c2csc(NC(=O)CCCl)n2)cc1
HCT-15
  growth inhibition (GI): 25.9%
[1]
  GI50: 4.8 µM
  TGI: 31.3 µM
[1]; [12]
  CC50: 61.1 µM
SK-MEL-2
  growth inhibition (GI): 54.2%
CAKI-1
  growth inhibition (GI): 55.6%
SNB-19
  growth inhibition (GI): 73.1%
[2]
  growth inhibition (GI): 55.9%
Malme-3M
  growth inhibition (GI): 29.1%
MDA-MB-468
  growth inhibition (GI): Active
SW-620
  growth inhibition (GI): 65.2%
[3]
  GI50: 4.8 µM
  TGI: 17.6 µM
[3]; [12]
  CC50: 50.2 µM
[4]
  GI50: 6.3 µM
  TGI: 20.3 µM
[4]; [12]
  CC50: 61.5 µM
MCF7
  growth inhibition (GI): 65.9%
OVCAR-3
  growth inhibition (GI): 45.3%
HOP-62
  growth inhibition (GI): 16.2%
PC-3
  growth inhibition (GI): 69.5%
SK-MEL-28
  growth inhibition (GI): 31%
RPMI-8226
  growth inhibition (GI): 80.9%
OVCAR-4
  growth inhibition (GI): 81.5%
SK-MEL-5
  growth inhibition (GI): 16.6%
SN12C
  growth inhibition (GI): 33.2%
[5]
  GI50: 4.2 µM
  TGI: 13.4 µM
[5]; [12]
  CC50: 44.3 µM
UO-31
  growth inhibition (GI): 61.3%
OVCAR-5
  growth inhibition (GI): 29.3%
K562
  growth inhibition (GI): 21.1%
[6]
  GI50: 3.8 µM
  TGI: 16.8 µM
[6]; [12]
  CC50: 63.4 µM
HT-29
  growth inhibition (GI): 21%
LOX IMVI
  growth inhibition (GI): 45.1%
OVCAR-8
  growth inhibition (GI): 60.6%
HOP-92
  growth inhibition (GI): 50.5%
TK-10
  growth inhibition (GI): Active
MOLT-4
  growth inhibition (GI): 43.3%
SF-268
  growth inhibition (GI): 46.3%
[7]
  growth inhibition (GI): 55.8%
SR
  growth inhibition (GI): 88.5%
M14
  growth inhibition (GI): 56.1%
NCI-H522
  growth inhibition (GI): 41%
SF-539
  growth inhibition (GI): 25.2%
[8]
  GI50: 2 µM
  TGI: 21.5 µM
[8]; [12]
  CC50: > 100 µM
NCI-H226
  growth inhibition (GI): 22%
IGROV-1
  growth inhibition (GI): 63.1%
MDA-MB-435
  growth inhibition (GI): 36.9%
MDA-MB-231
  growth inhibition (GI): 53.5%
UACC-257
  growth inhibition (GI): 41.3%
CCRF-CEM
  growth inhibition (GI): 88.3%
KM12
  growth inhibition (GI): 82.4%
HCT-116
  growth inhibition (GI): 46.2%
UACC-62
  growth inhibition (GI): 41.8%
A549
  growth inhibition (GI): 77.3%
HL-60
  growth inhibition (GI): 41.4%
[9]
  GI50: 3.2 µM
  TGI: 11.9 µM
[9]; [12]
  CC50: 39.2 µM
[10]
  GI50: 2.8 µM
  TGI: 12.5 µM
[10]; [12]
  CC50: 39.3 µM
EKVX
  growth inhibition (GI): 50.3%
[11]
  GI50: 3.3 µM
  TGI: 32.3 µM
[11]; [12]
  CC50: 62.1 µM
ACHN
  growth inhibition (GI): 45.1%
SF-295
  growth inhibition (GI): 30.2%
SNB-75
  growth inhibition (GI): 34.6%
T47D
  growth inhibition (GI): 55.2%
NCI-H23
  growth inhibition (GI): Active
U-251
  growth inhibition (GI): 48.5%
HCC 2998
  growth inhibition (GI): 22.5%
RXF 393
  growth inhibition (GI): 43.8%
BT-549
  growth inhibition (GI): 72.3%
SK-OV-3
  growth inhibition (GI): 63%
